Holding throughout (format): cell-based
For assay [1], the system named is Phaeosphaeria nodorum. Put plainly: Plate medium fungicidal assay, wheat Septoria nodorum blotch P.n (Experimental Example 5). Conditions: for inhibition at 5 µg/mL / inhibition at 50 µg/mL: Parastagonospora nodorum. As for the experimental part:
(§1) In this Experimental Example, the fungicidal effects of the inventive compounds on various phytopathogenic fungi for plants and hazardous microorganism for industrial materials were examined by the methods described below. Each inventive compound was dissolved in 2 ml of dimethyl sulfoxide. 0.6 ml of this solution was added to 60 nil of a PDA medium (potato dextrose agar medium) at about 60 degrees C., which was mixed thoroughly in a 100-ml conical flask, and poured into a dish, where it was solidified, thereby obtaining a plate medium containing the inventive compound at 50 mg/L and 5 mg/L. On the other hand, a subject microorganism previously cultured on a plate medium was cut out using a cork borer whose diameter was 4 mm, and inoculated to the test compound-containing plate medium described above. […] The growth degree of the microorganism on the test compound-containing plate medium thus observed was compared with the growth degree of the microorganism in the untreated group, and % mycelial growth inhibition was calculated by the following equation. R=100(dc−dt)/dc wherein R=% mycelial extension inhibition, dc=flora diameter in untreated plate, dt=flora diameter in treated plate. The results obtained as described above were evaluated as one of the 5 grades according to the following criteria. […] Wheat Septoria nodorum blotch (Phaeosphaeria nodorum) P.n

Assay [2] relates to Botritis cinerea. Put plainly: Plate medium fungicidal assay, gray mold B.c (Experimental Example 5). The protocol:
as §1, with “Gray mold (Botritis cinerea) B.c” for “Wheat Septoria nodorum blotch (Phaeosphaeria nodorum) P.n”

Assay [3] has as its system Pseudocercoporella herpotrichoides. Put plainly: Plate medium fungicidal assay, wheat eye spot P.h (Experimental Example 5). The protocol: as §1, with “eye spot (Pseudocercoporella herpotrichoides) P.h” for “Septoria nodorum blotch (Phaeosphaeria nodorum) P.n”
In assay [4] the test system is Fusarium oxysporum. Put plainly: Plate medium fungicidal assay, cucumber fusarium wilt F.c (Experimental Example 5). Conditions: for inhibition at 5 µg/mL / inhibition at 50 µg/mL: Fusarium oxysporum. The protocol: as §1, with “Cucumber fusarium wilt (Fusarium oxysporum) F.c” for “Wheat Septoria nodorum blotch (Phaeosphaeria nodorum) P.n”
In assay [5] the test system is Rhynchosporium secalis. Put plainly: Plate medium fungicidal assay, barley leaf blotch R.sec (Experimental Example 5). The conditions noted are these: for inhibition at 5 µg/mL / inhibition at 50 µg/mL: Rhynchosporium secalis. As for the experimental part: as §1, with “Barley leaf” for “Wheat Septoria nodorum”, “(Rhynchosporium secalis) R.sec” for “(Phaeosphaeria nodorum) P.n”

Setting [6] is: plate medium containing compound at 5 mg/L.
Setting [7] is: plate medium containing compound at 50 mg/L.

A word on the inhibition: it is how much of the control response was suppressed.

Like-named read-outs stand apart in the source and are kept apart here.

For `C[C@]1(CCl)CC[C@@H](Cc2cccc(Cl)c2)[C@]1(O)Cn1cncn1` (racemic) [Compound I-74, (1RS,2SR,5SR)-5-(3-chlorobenzyl)-2-chloromethyl-2-methyl-1-(1H-1,2,4-triazol-1-ylmethyl)cyclopentanol], the inhibition at 5 µg/mL in assay [1] (plate medium containing compound at 5 mg/L, read-out: Growth inhibition grade, P.n) was > 80%; in assay [2] (plate medium containing compound at 5 mg/L, read-out: Growth inhibition grade, B.c), > 80%; in assay [3] (plate medium containing compound at 5 mg/L, read-out: Growth inhibition grade, P.h) it was > 80%; in assay [4] (plate medium containing compound at 5 mg/L, read-out: Growth inhibition grade, F.c), > 80%; in assay [5] (plate medium containing compound at 5 mg/L, read-out: Growth inhibition grade, R.sec) it was > 80%. Further, the inhibition at 50 µg/mL in assay [1] (plate medium containing compound at 50 mg/L, read-out: Growth inhibition grade, P.n) is > 80%; in assay [2] (plate medium containing compound at 50 mg/L, read-out: Growth inhibition grade, B.c) it was > 80%; in assay [3] (plate medium containing compound at 50 mg/L, read-out: Growth inhibition grade, P.h), > 80%; in assay [4] (plate medium containing compound at 50 mg/L, read-out: Growth inhibition grade, F.c), > 80%; in assay [5] (plate medium containing compound at 50 mg/L, read-out: Growth inhibition grade, R.sec) it was > 80%.
Take `C[C@]1(CCl)CC[C@@H](Cc2ccc(OC(F)(F)F)cc2)[C@]1(O)Cn1cncn1` (relative stereo) [Compound I-79]: the “Growth inhibition grade, P.n” value in assay [1] (setting [6]) and in assay [1] (setting [7]) was 5 (% Mycerial growth inhibition of 80% or higher) each time. The “Growth inhibition grade, B.c” value in assay [2] (setting [6]) and in assay [2] (setting [7]) was 5 (% Mycerial growth inhibition of 80% or higher) in each case. The “Growth inhibition grade, P.h” value in assay [3] (setting [6]) and in assay [3] (setting [7]) was 5 (% Mycerial growth inhibition of 80% or higher) each time. Also, the “Growth inhibition grade, F.c” value in assay [4] (setting [6]) and in assay [4] (setting [7]) was 5 (% Mycerial growth inhibition of 80% or higher) each time. Also, the “Growth inhibition grade, R.sec” value in assay [5] (setting [6]) and in assay [5] (setting [7]) was 5 (% Mycerial growth inhibition of 80% or higher) each time.
For the compound `Cc1ccc(C[C@@H]2CC[C@](C)(CCl)[C@@]2(O)Cn2cncn2)cc1` (relative stereo) [Compound I-80], the “Growth inhibition grade, P.n” value in assay [1] (setting [6]) and in assay [1] (setting [7]) was 5 (% Mycerial growth inhibition of 80% or higher) throughout. Further, the “Growth inhibition grade, B.c” value in assay [2] (setting [6]) and in assay [2] (setting [7]) was 5 (% Mycerial growth inhibition of 80% or higher) in each case. Further, the “Growth inhibition grade, P.h” value in assay [3] (setting [6]) and in assay [3] (setting [7]) was 5 (% Mycerial growth inhibition of 80% or higher) each time. Further, the “Growth inhibition grade, F.c” value in assay [4] (setting [6]) and in assay [4] (setting [7]) was 5 (% Mycerial growth inhibition of 80% or higher) each time. Also, the “Growth inhibition grade, R.sec” value in assay [5] (setting [6]) and in assay [5] (setting [7]) was 5 (% Mycerial growth inhibition of 80% or higher) in each case.
Take `C[C@@]1(CCl)CC[C@H](Cc2ccc(Cl)cc2)[C@]1(O)Cn1cncn1` (racemic) [Compound I-401, (1RS,2RS,5RS)-5-(4-chlorobenzyl)-2-chloromethyl-2-methyl-1-[1,2,4]triazol-1-ylmethylcyclopentanol]: the inhibition at 5 µg/mL is > 80% in assay [1] (plate medium, 5 mg/L, read-out: growth inhibition grade P.n); > 80% in assay [2] (plate medium, 5 mg/L, read-out: growth inhibition grade B.c); > 80% in assay [3] (plate medium, 5 mg/L, read-out: growth inhibition grade P.h); > 80% in assay [4] (plate medium, 5 mg/L, read-out: growth inhibition grade F.c); > 80% in assay [5] (plate medium, 5 mg/L, read-out: growth inhibition grade R.sec). The inhibition at 50 µg/mL in assay [1] (plate medium, 50 mg/L, read-out: growth inhibition grade P.n) is > 80%; in assay [2] (plate medium, 50 mg/L, read-out: growth inhibition grade B.c) it was > 80%; in assay [3] (plate medium, 50 mg/L, read-out: growth inhibition grade P.h), > 80%; in assay [4] (plate medium, 50 mg/L, read-out: growth inhibition grade F.c), > 80%; in assay [5] (plate medium, 50 mg/L, read-out: growth inhibition grade R.sec) it was > 80%.

For the origin of these results see patent publication US9145351B2, “Azole derivatives, methods for producing the same, intermediate thereof, agro-horticultural agents” (KUREHA CORPORATION, priority 2009, dated 2015).
